How the values were obtained:
[1] = tested on: Mycobacterium tuberculosis Erdman (autoluminescent); test: FIC90 (Loewe) at 90% inhibition (log2); higher = more antagonistic
Protocol: (§1)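 DiaMOND equipotent two-drug combination dose responses against autoluminescent M. tuberculosis Erdman in 8 in vitro models. Read-out is OD600, or luminescence for the intracellular and dormancy models, normalised to untreated wells. Hill-fit Einf, AUC25 and GRinf are potency metrics; FIC50 and FIC90 are Loewe-additivity fractional inhibitory concentrations, given as log2 (negative = synergy). Replicates are averaged.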

[2] = tested on: Mycobacterium tuberculosis Erdman (autoluminescent); test: FIC50 (Loewe) at 50% inhibition (log2); higher = more antagonistic
Protocol: as §1

[3] = tested on: Mycobacterium tuberculosis Erdman (autoluminescent); test: Einf, fitted maximum growth inhibition of combination (fraction); higher = stronger maximal inhibition
Protocol: as §1

[4] = tested on: Mycobacterium tuberculosis Erdman (autoluminescent); test: AUC25, normalised area under dose response up to IC25 (fraction (0-1)); higher = more potent at low dose
Protocol: as §1

[5] = tested on: Mycobacterium tuberculosis Erdman (autoluminescent); test: GRinf, maximum normalised growth rate inhibition (unitless (-1 to 1)); higher = less effect (negative = killing)
Protocol: as §1

[6] = in vitro model: acidic pH 5.7, time point: terminal (~4-5 doublings, model-specific)
[7] = in vitro model: butyrate, time point: terminal (~4-5 doublings, model-specific)
[8] = in vitro model: cholesterol-high 0.2 mM, time point: terminal (~4-5 doublings, model-specific)
[9] = in vitro model: dormancy (butyrate + nitrate, low O2), time point: terminal (~4-5 doublings, model-specific)
[10] = in vitro model: intracellular J774, time point: constant = terminal
[11] = in vitro model: standard 7H9 glycerol, time point: constant = terminal
[12] = in vitro model: valerate, time point: terminal (~4-5 doublings, model-specific)
[13] = in vitro model: acidic pH 5.7, time point: constant (~7 days, model-specific)
[14] = in vitro model: butyrate, time point: constant (~7 days, model-specific)
[15] = in vitro model: cholesterol 0.05 mM, time point: constant (~7 days, model-specific)
[16] = in vitro model: cholesterol 0.05 mM, time point: terminal (~4-5 doublings, model-specific)
[17] = in vitro model: cholesterol-high 0.2 mM, time point: constant (~7 days, model-specific)
[18] = in vitro model: dormancy (butyrate + nitrate, low O2), time point: constant (~7 days, model-specific)
[19] = in vitro model: valerate, time point: constant (~7 days, model-specific)

With `CC[C@@H](CO)NCCN[C@@H](CC)CO` [ethambutol] + NNC(=O)c1ccncc1 [isoniazid] the FIC90 [1, 6] was 0.229, the FIC90 [1, 7] was 0.423 and the FIC90 [1, 8] was 0.501. The FIC90 [1, 9] was -0.0702, the FIC90 [1, 10] was -0.439 and the FIC90 [1, 11] was 0.426. It also gave an FIC90 [1, 12] of 0.345, an FIC50 [2, 13] of 1.2 and an FIC50 [2, 6] of 0.67. For the same molecule, the FIC50 [2, 14] was 0.509, the FIC50 [2, 7] was 0.525 and the FIC50 [2, 15] was 0.389. The FIC50 [2, 16] was 0.82, the FIC50 [2, 17] was 0.561 and the FIC50 [2, 8] was 0.775. The FIC50 [2, 18] was -0.0762, the FIC50 [2, 9] was -0.121 and the FIC50 [2, 11] was 0.483. For the same molecule, the FIC50 [2, 19] was 0.108, the FIC50 [2, 12] was 0.332 and the Einf [3, 13] was 0.693. It also gave an Einf [3, 6] of 0.919, an Einf [3, 14] of 0.933 and an Einf [3, 7] of 0.973. It also gave an Einf [3, 15] of 0.73, an Einf [3, 16] of 0.862 and an Einf [3, 17] of 0.905. For the same molecule, the Einf [3, 8] was 1, the Einf [3, 18] was 0.818 and the Einf [3, 9] was 0.964. For the same molecule, the Einf [3, 10] was 1, the Einf [3, 11] was 0.92 and the Einf [3, 19] was 0.897. It also gave an Einf [3, 12] of 0.935, an AUC25 [4, 13] of 0.134 and an AUC25 [4, 6] of 0.0706. The AUC25 [4, 14] was 0.075, the AUC25 [4, 7] was 0.0681 and the AUC25 [4, 15] was 0.0891. It also gave an AUC25 [4, 16] of 0.0491, an AUC25 [4, 17] of 0.0277 and an AUC25 [4, 8] of 0.0319. The AUC25 [4, 18] was 0.104, the AUC25 [4, 9] was 0.0973 and the AUC25 [4, 11] was 0.0635. The AUC25 [4, 19] was 0.111, the AUC25 [4, 12] was 0.0612 and the GRinf [5, 13] was -0.17. For the same molecule, the GRinf [5, 6] was 0.00119, the GRinf [5, 14] was -0.0966 and the GRinf [5, 7] was -0.109. It also gave a GRinf [5, 15] of -0.157, a GRinf [5, 16] of -0.106 and a GRinf [5, 17] of -0.31. The GRinf [5, 8] was -0.731, the GRinf [5, 18] was 0.454 and the GRinf [5, 9] was -0.0063. For the same molecule, the GRinf [5, 10] was -0.332, the GRinf [5, 11] was 0.0262 and the GRinf [5, 19] was 0.0449. It also gave a GRinf [5, 12] of 0.0607.
Molecule `CC[C@@H](CO)NCCN[C@@H](CC)CO` [ethambutol] + O=[N+]([O-])c1cn2c(n1)OC[C@@H](OCc1ccc(OC(F)(F)F)cc1)C2 [pretomanid] has an FIC90 [1, 13] of -1.11, an FIC90 [1, 6] of 0.214 and an FIC90 [1, 7] of -0.401. For the same molecule, the FIC90 [1, 16] was 1.01, the FIC90 [1, 8] was 1.06 and the FIC90 [1, 9] was 0.272. It also gave an FIC90 [1, 10] of -1.45, an FIC90 [1, 11] of -0.156 and an FIC90 [1, 12] of 0.51. For the same molecule, the FIC50 [2, 13] was 0.0798, the FIC50 [2, 6] was 0.568 and the FIC50 [2, 14] was 0.254. For the same molecule, the FIC50 [2, 7] was 0.0549, the FIC50 [2, 15] was 0.407 and the FIC50 [2, 16] was 0.436. The FIC50 [2, 17] was 1.02, the FIC50 [2, 8] was 0.975 and the FIC50 [2, 18] was 0.385. It also gave an FIC50 [2, 9] of 0.00245, an FIC50 [2, 11] of 0.211 and an FIC50 [2, 19] of 0.23. It also gave an FIC50 [2, 12] of 0.115, an Einf [3, 13] of 0.847 and an Einf [3, 6] of 0.978. For the same molecule, the Einf [3, 14] was 0.924, the Einf [3, 7] was 0.967 and the Einf [3, 15] was 0.79. The Einf [3, 16] was 0.934, the Einf [3, 17] was 0.871 and the Einf [3, 8] was 0.99. For the same molecule, the Einf [3, 18] was 0.835, the Einf [3, 9] was 0.968 and the Einf [3, 10] was 0.977. The Einf [3, 11] was 0.958, the Einf [3, 19] was 0.836 and the Einf [3, 12] was 0.922. It also gave an AUC25 [4, 13] of 0.113, an AUC25 [4, 6] of 0.0826 and an AUC25 [4, 14] of 0.0746. For the same molecule, the AUC25 [4, 7] was 0.0585, the AUC25 [4, 15] was 0.12 and the AUC25 [4, 16] was 0.104. For the same molecule, the AUC25 [4, 17] was 0.0476, the AUC25 [4, 8] was 0.0356 and the AUC25 [4, 18] was 0.1. For the same molecule, the AUC25 [4, 9] was 0.112, the AUC25 [4, 11] was 0.076 and the AUC25 [4, 19] was 0.111. For the same molecule, the AUC25 [4, 12] was 0.0733, the GRinf [5, 13] was -0.488 and the GRinf [5, 6] was -0.437. It also gave a GRinf [5, 14] of 0.00273, a GRinf [5, 7] of -0.0359 and a GRinf [5, 15] of -0.319. For the same molecule, the GRinf [5, 16] was -0.25, the GRinf [5, 17] was -0.159 and the GRinf [5, 8] was -0.498. For the same molecule, the GRinf [5, 18] was 0.404, the GRinf [5, 9] was 0.0288 and the GRinf [5, 10] was -0.403. It also gave a GRinf [5, 11] of -0.109, a GRinf [5, 19] of 0.0201 and a GRinf [5, 12] of 0.0884.

From the supplement of paper PMC8617591
